Bridge positions count the residues as written; N and C are the ends. Square brackets hold non-standard residues; d marks the D form. Ends that are not written are not given here. I, II: the chains in the order shown. Ac6c = NC1(C(=O)O)CCCCC1; Dab = NCC[C@H](N)C(=O)O
Key:
in vitro [1] = format: in vitro ADME, mouse
Procedure: The stability of peptide A3-APO was analyzed in commercially available pooled mouse serum diluted to 25% with distilled water as follows. It has been shown that dilution of serum linearly reduces the degradation rate of peptides without changing any other proteolytic parameters (Powell et al., 1992. J. Pharm. Sci. 81: 731-735). […] Specifically, ninety μL of pooled sterile mouse serum (Equitech-Bio, Kerrville, Tex.) was added to 10 μL of peptide A3-APO dissolved in distilled water at 1.28 mg/mL concentration. After incubation periods of 0, 15, 30, 60 or 90, 120 and 240 min at 37° C., 20 μL 15% trichloracetic acid (TCA) was added, the mixture stored at 4° C. for 20 minutes, and centrifuged at 13,000 rpm. The supernatant was submitted to determination of remaining amount of unmodified A3-APO peptide by MS and RP-HPLC.

in vitro [2] = format: in vitro ADME; conditions: mouse, serum
Procedure: The metabolic stability of peptide A3-APO in full serum in vitro was examined in peptide degredation studies in blood derived media. A3-APO was added to undiluted mouse serum preparation and was incubated in the full serum for 30 minutes. The serum proteins were precipitated and the serum was submitted for mass spectroscopic analysis.

E. coli HK179 [3] = conditions: HK179, 16 h
Text: (§1) To investigate the activity of the A3-APO metabolites, Chex1-Arg20 single chain unit and an Arg7-Arg20 common cleavage fragment were synthesized and studied for their ability to kill Enterobacteriaceae strains in undiluted Muller-Hinton broth, a true measure of potential clinical viability (Otvos et al., 2005. J. Med. Chem. 48: 5349-5359). The peptides of the invention were made on a CEM Liberty automated synthesizer with standard Fmoc-chemistry. The peptides were detached from the resin with the carboxyl terminus of the C-terminal Arg residue being in the form of an amino amide, —C(O)—NH2 (“Chex1-Arg20-NH2” and “Arg7-Arg20-NH2”), while still in the microwave chamber, and were purified by RP-HPLC. […] The biological studies carried out on chemically synthesized peptides in this example and succeeding examples were carried out on the C-terminal modified versions of the peptides wherein the C-terminal carboxylic acid function was in the form of an amide, —C(O)—NH2. Antibacterial growth inhibition assays were performed using sterile 96-well polypropylene plates (Nunc F96 microtiter plates) in a final volume of 100 μL as described previously (Cudic et al., 2002. Peptides 23: 271-283). The cell concentrations were estimated by measuring the ultraviolet absorbance at 600 nm and applying the formula cfu/mL=A600(3.8×10^8), where cfu is the number of colony-forming units. Briefly, 50 μL of a suspension of midlogarithmic phase bacterial cultures diluted to 5×10^5 cfu/mL in Muller-Hinton broth (MHB) was added to 50 μL of serially diluted peptides also dissolved in MHB. The final peptide concentration was 128 μg/mL. Cultures were then incubated at 37° C., 5% CO2 for 16-20 h without shaking, and growth inhibition was measured by recording the absorbance at 600 nm using a microplate reader. […] The minimal inhibitory concentration indicates the lowest peptide dose where no visible bacterial growth is detected after 16 hours incubation in full strength Muller-Hinton broth at 37° C. The peptide Chex-pyrr-Dap dimer was also included in the study. […] (Cudic et al., 2002. Peptides 23: 271-283).

E. coli SEQ102 [4] = conditions: SEQ102, 16 h
Text: as §1

K. pneumoniae HK123 = conditions: HK123, 16 h
Text: as §1

S. typhimurium G10215 [5] = conditions: G10215, 16 h
Text: as §1

[6] = system: A. baumannii ATCC BBA-1605
Text: as §1
(§2) Following the protocol of Example 2, minimal inhibitory concentrations of the Chex1-Arg20 peptide against selected bacteria was determined. […] A3-APO was included for comparison.

E. coli 045-849 = system: E. coli 045-849
Text: as §1, §2

E. coli 5770 = system: E. coli 5770
Text: as §1, §2

E. coli HK131 = system: E. coli HK131
Text: as §1, §2

E. coli HK179 [7] = system: E. coli HK179
Text: as §1, §2

E. coli SEQ102 [8] = system: E. coli SEQ102
Text: as §1, §2

E. coli SOTE40 = system: E. coli SOTE40
Text: as §1, §2

K. pneumoniae 012-3132 = system: K. pneumoniae 012-3132
Text: as §1, §2

K. pneumoniae HK 123 = system: K. pneumoniae HK 123
Text: as §1, §2

K. pneumoniae HK 127 = system: K. pneumoniae HK 127
Text: as §1, §2

K. pneumoniae HK 186 = system: K. pneumoniae HK 186
Text: as §1, §2

K. pneumoniae K6 = system: K. pneumoniae K6
Text: as §1, §2

P. aeruginosa 10 = system: P. aeruginosa 10
Text: as §1, §2

P. aeruginosa ATCC 39329 = system: P. aeruginosa ATCC 39329
Text: as §1, §2

[9] = system: S. saprophyticus ATCC 15305
Text: as §1, §2

[10] = system: S. typhimurium ATCC 14028
Text: as §1, §2

S. typhimurium G10215 [11] = system: S. typhimurium G10215
Text: as §1, §2

S. typhimurium S5 = system: S. typhimurium S5
Text: as §1, §2

I: [Ac6c]RPDKPRPYLPRPRPPRPVR[Dab] / II: [Ac6c]RPDKPRPYLPRPRPPRPVR (amide I:21-II:C (inferred)) [Peptide A3-APO, reference compound]
almost half: original peptide amount remaining intact within the first hour (in vitro [1]; serum)
~35%: metabolised at 0.5 h (in vitro [2])
8 µg/mL: MIC against E. coli HK179 (E. coli HK179 [3]) | MIC, E. coli SOTE40 (E. coli SOTE40) | MIC, K. pneumoniae HK 127 (K. pneumoniae HK 127) | MIC, K. pneumoniae HK 186 (K. pneumoniae HK 186) | MIC, P. aeruginosa 10 (P. aeruginosa 10) | MIC, P. aeruginosa ATCC 39329 (P. aeruginosa ATCC 39329) | MIC, S. typhimurium ATCC 14028 [10] | MIC, S. typhimurium S5 (S. typhimurium S5)
4 µg/mL: MIC, E. coli 045-849 (E. coli 045-849) | MIC, E. coli HK131 (E. coli HK131) | MIC, K. pneumoniae HK 123 (K. pneumoniae HK 123) | MIC, K. pneumoniae K6 (K. pneumoniae K6) | MIC, S. typhimurium G10215 (S. typhimurium G10215 [11])
~3.83 h: half-life at 0.128 mg/mL (in vitro [1]; 25% pooled mouse serum, 37° C.)
2 µg/mL: MIC, E. coli 5770 (E. coli 5770) | MIC, E. coli HK179 (E. coli HK179 [7]) | MIC, E. coli SEQ102 (E. coli SEQ102 [8]) | MIC, K. pneumoniae 012-3132 (K. pneumoniae 012-3132) | MIC, S. saprophyticus ATCC 15305 [9]
16 µg/mL: MIC against E. coli SEQ102 (E. coli SEQ102 [4]) | MIC against K. pneumoniae HK123 (K. pneumoniae HK123) | MIC against S. typhimurium G10215 (S. typhimurium G10215 [5]) | MIC, A. baumannii ATCC BBA-1605 [6]
